The values that follow come from BindingDB's records for doi:10.1016/j.bmc.2011.04.011 (University of Toyama, 2011).

The target in this assay is T1, Lysosomal acid glucosylceramidase (Bos taurus, UniProt Q2KHZ8).
T1 sequence (Q2KHZ8 whole entry): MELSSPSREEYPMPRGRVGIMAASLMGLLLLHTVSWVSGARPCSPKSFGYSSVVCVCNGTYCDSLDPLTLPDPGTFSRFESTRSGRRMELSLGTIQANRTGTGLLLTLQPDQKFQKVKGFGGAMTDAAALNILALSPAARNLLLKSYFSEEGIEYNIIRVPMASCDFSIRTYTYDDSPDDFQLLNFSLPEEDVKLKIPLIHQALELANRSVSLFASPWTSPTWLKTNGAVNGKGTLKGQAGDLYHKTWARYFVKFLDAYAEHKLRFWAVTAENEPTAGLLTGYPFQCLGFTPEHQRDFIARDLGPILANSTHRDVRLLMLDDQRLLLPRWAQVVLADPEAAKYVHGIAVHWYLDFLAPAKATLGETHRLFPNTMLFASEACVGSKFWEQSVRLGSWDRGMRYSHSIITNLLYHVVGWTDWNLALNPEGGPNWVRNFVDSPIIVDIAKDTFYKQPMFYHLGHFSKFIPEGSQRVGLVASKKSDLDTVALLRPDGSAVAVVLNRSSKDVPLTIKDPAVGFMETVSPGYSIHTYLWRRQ
Description: Inhibition of bovine liver beta-glucosidase assessed as production of 4-methylumbelliferone using 4-methylumbelliferyl beta-D-glucoside as substrate by spectrophotometry.
As a reminder, the IC50 is the concentration that gives 50% inhibition. For `OC[C@H]1CNC[C@@H](O)[C@@H]1O`, the IC50 was 31 µM.

Take `OC[C@H]1NCC[C@H](O)[C@@H]1O` [3-epifagomine]: the IC50 turned out to be 5.6 µM. The figure for `OC[C@H]1NCC[C@@H](O)[C@@H]1O` [(2R,3R,4R)-2-Hydroxymethyl-piperidine-3,4-diol] is 250 µM.

In the case of `OC[C@@H]1CNC[C@H](O)[C@H]1O` [L-Isofagomine], the IC50 stood at 611 µM.
